# Assay results from US9133148B2, “Carbamate compounds and of making and using same” (Abide Therapeutics, Inc., priority 2012, dated 2015).
# Legend:
# Assay type in all cases: biochemical
# MAGL [1] = target: T1, MAGL (Mus musculus (Mouse), UniProt O35678); test: In vitro competitive activity-based protein profiling (FP-Rh), mouse MAGL; details: mouse brain membrane proteome, competitive ABPP
# Procedure: (§1) In Vitro Competitive Activity-Based Protein Profiling.
# (§2) Proteomes (mouse brain membrane fraction or cell lysates) ([…], 1.0 mg/mL total protein concentration) were preincubated with varying concentrations of inhibitors at 37° C. After 30 min, FP-Rh (1.0 μL, 50 μM in DMSO) was added and the mixture was incubated for another 30 min at 37° C. Reactions were quenched with SDS loading buffer (50 μL—4×) and run on SDS-PAGE.
# FAAH [2] = target: T2, FAAH (Mus musculus (Mouse), UniProt O08914); test: In vitro competitive activity-based protein profiling (FP-Rh), mouse FAAH; details: mouse brain membrane proteome, competitive ABPP
# T2 sequence (O08914 whole entry): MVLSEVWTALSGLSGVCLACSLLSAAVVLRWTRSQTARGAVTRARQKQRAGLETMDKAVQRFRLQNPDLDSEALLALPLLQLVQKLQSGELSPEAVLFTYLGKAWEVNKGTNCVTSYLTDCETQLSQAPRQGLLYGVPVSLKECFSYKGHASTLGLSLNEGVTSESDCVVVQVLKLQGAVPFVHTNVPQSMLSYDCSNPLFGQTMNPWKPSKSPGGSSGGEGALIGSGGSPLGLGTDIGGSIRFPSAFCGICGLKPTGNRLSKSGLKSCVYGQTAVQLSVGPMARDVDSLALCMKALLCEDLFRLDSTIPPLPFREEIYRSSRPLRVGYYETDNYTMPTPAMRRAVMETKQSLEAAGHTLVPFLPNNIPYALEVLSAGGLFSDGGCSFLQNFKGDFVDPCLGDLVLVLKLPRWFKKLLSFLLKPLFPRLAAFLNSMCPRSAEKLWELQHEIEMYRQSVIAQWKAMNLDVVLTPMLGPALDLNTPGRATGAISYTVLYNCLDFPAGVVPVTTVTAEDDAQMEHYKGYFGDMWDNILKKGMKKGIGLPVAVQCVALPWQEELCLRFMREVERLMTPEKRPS
# Procedure: as §1, §2
# ABHD6 [3] = target: T3, ABHD6 (Mus musculus (Mouse), UniProt Q8R2Y0); test: In vitro competitive activity-based protein profiling (FP-Rh), mouse ABHD6; details: mouse brain membrane proteome, competitive ABPP
# T3 sequence (Q8R2Y0 whole entry): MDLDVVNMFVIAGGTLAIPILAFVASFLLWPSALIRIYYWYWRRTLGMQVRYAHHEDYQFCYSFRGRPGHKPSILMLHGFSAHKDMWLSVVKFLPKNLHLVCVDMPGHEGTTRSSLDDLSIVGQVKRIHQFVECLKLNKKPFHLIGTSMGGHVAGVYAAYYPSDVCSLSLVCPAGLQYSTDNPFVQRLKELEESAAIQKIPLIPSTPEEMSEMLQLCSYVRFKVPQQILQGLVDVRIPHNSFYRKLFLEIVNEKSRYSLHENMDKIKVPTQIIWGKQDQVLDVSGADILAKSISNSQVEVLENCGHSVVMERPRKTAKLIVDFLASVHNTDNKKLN
# Procedure: as §1, §2
# Human MAGL = Human MAGL (Homo sapiens (Human), UniProt Q99685); test: Competitive ABPP with recombinant human MAGL expressed in HEK293T cells; details: hMAGL in HEK293T cell lysates
# Human MAGL, sequence (Q99685 whole entry): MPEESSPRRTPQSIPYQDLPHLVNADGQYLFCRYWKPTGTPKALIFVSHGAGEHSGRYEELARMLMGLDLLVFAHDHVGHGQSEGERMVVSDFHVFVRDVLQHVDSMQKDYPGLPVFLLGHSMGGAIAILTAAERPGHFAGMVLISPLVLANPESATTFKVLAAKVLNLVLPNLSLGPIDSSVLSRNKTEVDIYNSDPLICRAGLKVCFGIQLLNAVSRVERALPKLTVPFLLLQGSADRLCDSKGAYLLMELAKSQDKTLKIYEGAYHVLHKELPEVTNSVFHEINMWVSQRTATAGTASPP
# Procedure: as §2
# Recombinant Expression of Human MAGL in HEK293T Cells.
# Cell lysates were diluted with mock proteomes for use in competitive ABPP experiments.
# FAAH [4] = target: T2, FAAH; test: Competitive ABPP, % inhibition at 1 uM, FAAH
# Procedure: as §1
# as §2, with “SDS-PAGE. Following gel imaging, serine hydrolase activity was determined by measuring fluorescent intensity of gel bands corresponding to MAGL, ABHD6 and FAAH using ImageJ 1.43u software.” for “SDS-PAGE.”
# MAGL [5] = target: T1, MAGL; test: Competitive ABPP, % inhibition at 1 uM, MAGL
# Procedure: as §1, §2
# ABHD6 [6] = target: T3, ABHD6; test: Competitive ABPP, % inhibition at 1 uM, ABHD6
# Procedure: as §1, §2
# T1 sequence (O35678 whole entry): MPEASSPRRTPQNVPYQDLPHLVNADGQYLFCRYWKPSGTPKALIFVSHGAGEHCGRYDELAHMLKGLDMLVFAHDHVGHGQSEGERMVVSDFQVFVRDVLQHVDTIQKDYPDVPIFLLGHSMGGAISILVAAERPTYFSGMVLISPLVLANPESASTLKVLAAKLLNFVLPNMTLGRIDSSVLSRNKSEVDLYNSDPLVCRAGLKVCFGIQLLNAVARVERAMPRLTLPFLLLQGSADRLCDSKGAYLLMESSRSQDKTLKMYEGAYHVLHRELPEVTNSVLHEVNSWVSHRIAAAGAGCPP
Compound,IC50 (MAGL [1]),IC50 (FAAH [2]),IC50 (ABHD6 [3]),IC50 (Human MAGL),inhibition at 1 µM (FAAH [4]),inhibition at 1 µM (MAGL [5]),inhibition at 1 µM (ABHD6 [6])
"O=C(OC(C(F)(F)F)C(F)(F)F)N1CCC(=C(c2ccc3c(c2)OCO3)c2ccc3c(c2)OCO3)CC1 [Example 1d, 1,1,1,3,3,3-hexafluoropropan-2-yl 4-(bis(benzo[d][1,3]dioxol-5-yl)methylene)piperidine-1-carboxylate]",< 100 nM,> 10000 nM,100 to 1000 nM,< 100 nM,,,
"O=C(OC(C(F)(F)F)C(F)(F)F)N1CCN(C(c2ccc3c(c2)CCO3)c2ccc3c(c2)CCO3)CC1 [Example 2e, 1,1,1,3,3,3-hexafluoropropan-2-yl 4-(bis(2,3-dihydrobenzofuran-5-yl)methyl)piperazine-1-carboxylate]",< 100 nM,> 10000 nM,100 to 1000 nM,< 100 nM,,,
"O=C(OC(C(F)(F)F)C(F)(F)F)N1CCN(C(c2ccc3c(c2)OC(F)(F)O3)c2ccc3c(c2)OC(F)(F)O3)CC1 [Example 2f, 1,1,1,3,3,3-hexafluoropropan-2-yl 4-(bis(2,2-difluorobenzo[d][1,3]-dioxol-5-yl)methyl)piperazine-1-carboxylate]",< 100 nM,> 10000 nM,> 1000 nM,< 100 nM,,,
"O=C(OC(C(F)(F)F)C(F)(F)F)N1CCN(Cc2ccc(-c3ccccc3)cc2)CC1 [Example 3b, 1,1,1,3,3,3-hexafluoropropan-2-yl 4-([1,1′-biphenyl]-4-ylmethyl)-piperazine-1-carboxylate]",100 to 1000 nM,> 10000 nM,> 1000 nM,< 100 nM,,,
"O=C(OC(C(F)(F)F)C(F)(F)F)N1CCN(C(=O)c2ccc(-c3ccccc3)cc2)CC1 [Example 3c, 1,1,1,3,3,3-hexafluoropropan-2-yl 4-([1,1′-biphenyl]-4-carbonyl)-piperazine-1-carboxylate]",> 1000 nM,> 10000 nM,> 1000 nM,> 1000 nM,,,
"COc1ccc(N2CCN(C(=O)OC(C(F)(F)F)C(F)(F)F)CC2)cc1 [Example 3e, 1,1,1,3,3,3-hexafluoropropan-2-yl 4-(4-methoxyphenyl)piperazine-1-carboxylate]",> 1000 nM,> 10000 nM,100 to 1000 nM,100 to 1000 nM,,,
"Cc1cc(N2CCN(C(=O)OC(C(F)(F)F)C(F)(F)F)CC2)c2ccccc2n1 [Example 3h, 1,1,1,3,3,3-hexafluoropropan-2-yl 4-(2-methylquinolin-4-yl)piperazine-1-carboxylate]",> 1000 nM,> 10000 nM,> 1000 nM,< 100 nM,,,
"Cc1cc(-c2ccc(CN3CCN(C(=O)OC(C(F)(F)F)C(F)(F)F)CC3)c(C)c2)ccn1 [Example 11i, 1,1,1,3,3,3-hexafluoropropan-2-yl 4-[[2-methyl-4-(2-methylpyridin-4-yl)phenyl]methyl]piperazine-1-carboxylate]",,,,,< 25%,25 to 75%,25 to 75%
"O=C(OC(C(F)(F)F)C(F)(F)F)N1CCN(Cc2ccc(-c3cccc(F)c3)cn2)CC1 [Example 11k, 1,1,1,3,3,3-hexafluoropropan-2-yl 4-[[5-(3-fluorophenyl)pyridin-2-yl]methyl]piperazine-1-carboxylate]",,,,,< 25%,> 75%,25 to 75%
"Cc1cc(-c2cccnc2)ccc1CN1CCN(C(=O)OC(C(F)(F)F)C(F)(F)F)CC1 [Example 11l, 1,1,1,3,3,3-hexafluoropropan-2-yl 4-[[2-methyl-4-(pyridin-3-yl)phenyl]methyl]piperazine-1-carboxylate]",,,,,< 25%,> 75%,> 75%
"Cc1cc(-c2ccc(CN3CCN(C(=O)OC(C(F)(F)F)C(F)(F)F)CC3)c(C)c2)cc(C)n1 [Example 11m, 1,1,1,3,3,3-hexafluoropropan-2-yl 4-[[4-(2,6-dimethylpyridin-4-yl)-2-methylphenyl]methyl]piperazine-1-carboxylate]",,,,,< 25%,25 to 75%,25 to 75%
"Cc1cc(-c2ccncc2C)ccc1CN1CCN(C(=O)OC(C(F)(F)F)C(F)(F)F)CC1 [Example 11n, 1,1,1,3,3,3-hexafluoropropan-2-yl 4-[[2-methyl-4-(3-methylpyridin-4-yl)phenyl]methyl]piperazine-1-carboxylate]",,,,,< 25%,> 75%,> 75%
"O=C(OC(C(F)(F)F)C(F)(F)F)N1CCN(Cc2ccc(-c3cccc(F)c3)cc2F)CC1 [Example 11o, 1,1,1,3,3,3-hexafluoropropan-2-yl 4-[[2-fluoro-4-(3-fluorophenyl)phenyl]methyl]piperazine-1-carboxylate]",,,,,< 25%,> 75%,25 to 75%
"Cc1cccc(-c2ccc(CN3CCN(C(=O)OC(C(F)(F)F)C(F)(F)F)CC3)c(Oc3ccccc3)c2)c1 [Example 11r, 1,1,1,3,3,3-hexafluoropropan-2-yl 4-[[4-(3-methylphenyl)-2-phenoxyphenyl]methyl]piperazine-1-carboxylate]",,,,,< 25%,25 to 75%,< 25%
"Cc1cc(-c2cccnc2C)ccc1CN1CCN(C(=O)OC(C(F)(F)F)C(F)(F)F)CC1 [Example 11s, 1,1,1,3,3,3-hexafluoropropan-2-yl 4-[[2-methyl-4-(2-methylpyridin-3-yl)phenyl]methyl]piperazine-1-carboxylate]",,,,,< 25%,25 to 75%,25 to 75%
"Cc1ncccc1-c1ccc(CN2CCN(C(=O)OC(C(F)(F)F)C(F)(F)F)CC2)c(F)c1 [Example 11t, 1,1,1,3,3,3-hexafluoropropan-2-yl 4-[[2-fluoro-4-(2-methylpyridin-3-yl)phenyl]methyl]piperazine-1-carboxylate]",,,,,< 25%,> 75%,25 to 75%
"Cc1ccccc1-c1ccc(CN2CCN(C(=O)OC(C(F)(F)F)C(F)(F)F)CC2)nc1C [Example 11u, 1,1,1,3,3,3-hexafluoropropan-2-yl 4-[[6-methyl-5-(2-methylphenyl)pyridin-2-yl]methyl]piperazine-1-carboxylate]",,,,,< 25%,25 to 75%,25 to 75%
"Cc1nc(CN2CCN(C(=O)OC(C(F)(F)F)C(F)(F)F)CC2)ccc1-c1ccccc1F [Example 11v, 1,1,1,3,3,3-hexafluoropropan-2-yl 4-[[5-(2-fluorophenyl)-6-methyl-pyridin-2-yl]methyl]piperazine-1-carboxylate]",,,,,< 25%,> 75%,> 75%
"Cc1nc(CN2CCN(C(=O)OC(C(F)(F)F)C(F)(F)F)CC2)ccc1-c1cccc(F)c1 [Example 11w, 1,1,1,3,3,3-hexafluoropropan-2-yl 4-[[5-(3-fluorophenyl)-6-methylpyridin-2-yl]methyl]piperazine-1-carboxylate]",,,,,< 25%,> 75%,25 to 75%
"Cc1cccc(-c2ccc(CN3CCN(C(=O)OC(C(F)(F)F)C(F)(F)F)CC3)c(C)c2)n1 [Example 11z, 1,1,1,3,3,3-hexafluoropropan-2-yl 4-[[2-methyl-4-(6-methylpyridin-2-yl)phenyl]methyl]piperazine-1-carboxylate]",,,,,< 25%,25 to 75%,25 to 75%
